Ten molecules from publication PMC10485906, “Development of a Dihydroquinoline–Pyrazoline GluN2C/2D-Selective Negative Allosteric Modulator of the N-Methyl-D-aspartate Receptor” (ACS Chemical Neuroscience, 2023) can be followed below.

SMILES strings stand for the structures. Read-outs that look alike come from different tables or passages of the source.

Data set [1] in a line: Brain homogenate tissue binding and stability (RED device). Type of data set: in vitro ADME, mouse. Particulars: for fraction unbound at 4 h, 5 µM / remaining at 4 h, 5 µM: C57BL/6, mouse, brain homogenate (4 times diluted); for remaining at 4 h, 5 µM: pH 7.4, starting concentration 5 μM; for recovery at 4 h, 5 μM: C57BL/6, pH 7.4, mouse brain tissue binding; for Average 2i Concentration, Buffer_Mice: buffer chamber after 4 h dialysis; for Average 2i Concentration, Brain_St_0Hr_Mice / Average 2i Concentration, Brain_St_4Hr_Mice: brain homogenate stability sample; for Average 2i Concentration, Brain_St_0Hr_Mice: 0 h; for Average 2i Concentration, Brain_Mice: brain homogenate chamber after 4 h dialysis. The method, then: Carbamazepine (Apin Chemicals) served as a positive control for brain tissue binding. Test compounds and the positive control were initially dissolved in DMSO to make 1 mM stock solutions. […] A rapid equilibrium dialysis (RED) device (Thermo Scientific) containing a dialysis membrane with a molecular weight cutoff of 8000 Da was used to assess tissue binding and metabolic stability. […] The test compounds and positive control (200 μL of 5 μM solution) were added to the red chamber of the dialysis insert, while the white chamber was filled with dialysis buffer (350 μL). The RED device was then sealed with an adhesive film and incubated at 37 °C with shaking (300 rpm) for 4 h. For the initial time point (t = 0 min), 50 μL aliquots of test compounds and the positive control were added to 96-deep well plates (0.7 mL per well) and quenched with 400 μL of MeCN. Following dialysis, another 50 μL aliquot of the tested samples was removed from each well (brain homogenate and buffer) and diluted with an equal volume of the opposite matrix to nullify any matrix effects. […] The supernatant (100 μL) was subsequently transferred to 96-deep well plates for LC-MS/MS analysis. Prodrug metabolism and 2i concentrations were determined by fit-for-purpose LC-MS/MS methods on a nine-point calibration curve ranging from 0.12 to 7.5 μM.

The nature of data set [2]: Kinetic solubility in PBS (nephelometer). Type of data set: physicochemical. The settings on record: Dulbecco's phosphate-buffered saline (DPBS), 25 °C, pH 7.2, aqueous buffer, kinetic from dmso stock, 1% DMSO, room temperature, n = 7. The source says: Anticipating that the carboxylate side chain may hinder BBB penetrance, we synthesized and biologically screened a series of 2i prodrugs with ester and amide masking groups. With the classical physiochemical parameters required for brain exposure (i.e., molecular weight, MW, lipophilicity, and topological polar surface area, TPSA) and drug release mechanisms beyond the BBB in mind, we focused on simple alkyl-based promoieties. Our selected lead compound (2i), a close analogue (2a), and their corresponding prodrugs (2l–r) were studied in vitro to ascertain drug solubility, metabolic stability in liver microsomes (LMs), plasma stability, mouse brain homogenate stability, and cytochrome P450 (CYP450) inhibition (Tables S3 and S4 for predicted absorption, distribution, metabolism, and excretion or ADME parameters). […]
Methods for Kinetic Solubility Experiments
The test compounds were first dissolved in DMSO to provide stock solutions of either 30 mM or 60 mM. Kinetic solubility experiments were then performed in a 96-well microtiter plate (Clear-Bottom, Black, Corning® Costar) with a final volume of 250 µL per well in rows B-H. Each plate was initially prepared with the addition of 16 μL of DMSO to well A3, 20 μL to well A4, 27 μL to well A5, and 40 μL to all remaining wells in row A (A1 and A6-12). Next, the test compound (30 μL of DMSO stock solution) was directly added to well A2 without further modification. Moreover, the test compound (64 μL of DMSO stock solution) was diluted in well A3 to give a total volume of 80 μL. Further dilutions were then conducted by removing 60 µL from well A3 and adding it to A4, followed by removing 53 µL from well A4 and adding it to A5, followed by removing 40 µL from well A5 and adding it to A6, and sequentially removing 40 µL from the remaining wells up to A12. Well A1 served as a DMSO blank.
The sample solutions prepared in row A (2.5 µL from each well) were transferred to the corresponding wells in rows B-H. Dulbecco’s phosphate-buffered saline (DPBS, Gibco®, 1X, no Ca2+ and Mg2+, pH […]
7.1-7.3) was then added to all wells in rows B-H (30 µL each), and the 96-well plate was incubated at 25 °C for 1 min. Next, DPBS (217.5 µL) was added to all wells in rows B-H, and the 96-well plate was once more incubated at 25 °C for 2 h. This procedure provided seven replicate experiments with final concentrations of the test compound (1% DMSO in DPBS) ranging from either 300 to 0.9375 µM or 600 to 1.875 µM in rows B-H, depending on the whether a 30 mM or 60 mM DMSO stock solution was used, respectively (i.e. a 100-fold dilution from sample preparation in row A). After incubation, the plates were analyzed using a NEPHELOstar® microplate reader, and the segmental linear regression data was processed with MARS analysis software (BMG LabTech, see Supplemental Figure S4A for a representative example). […]
Synergy-S diffractometer. The crystal was kept at a steady T = 100.0(3) K during data collection. The structure was solved with the ShelXT 2018/2 (Sheldrick, 2015, Bauer and Gotz, 2021) solution program using dual methods and by using Olex2 1.5-alpha (Dolomanov et al., 2009) as the graphical interface.
The model was refined with olex2.refine 1.5-alpha (Bourhis et al., 2015) using full matrix least squares […]
which were used in all calculations. The final wR2 was 0.0983 (all data) and R1 was 0.0412 (I≥2 s(I)).

Data set [3] concerns the target T1, CYP2D6 (Homo sapiens, UniProt P10635).
T1 construct: purchased Corning; host or cells: insect cells (microsomes)
The data set is described as follows: Fluorometric CYP450 enzyme inhibition assay, CYP2D6. The class given is in vitro ADME. Particulars: n = 2 (2k n = 4).
Procedure: CYP450 inhibition assays utilized microsomes from insect cells that express recombinant human CYP2D6 and CYP3A4 isoforms (Corning) with substrates of CYP2D6 (3-[2-(N,N-diethyl-N-methylammonium)-ethyl]-7-methoxy-4-methylcoumarin iodide, AMMC) and CYP3A4 (7-benzyloxy-4-trifluoromethylcoumarin, BFC) capable of producing fluorescent metabolites.[51],[52] […] A 100 mM sodium phosphate buffer was prepared and adjusted to a pH 7.4. In a separate falcon tube, a 2× enzyme–substrate (E–S) solution was prepared in phosphate buffer. The final concentrations of CYP2D6 and AMMC were 10 nM and 4 μM, respectively. The final concentrations of CYP3A4 and BFC were 20 nM and 40 μM, respectively. In a separate falcon tube, 2X solutions of the NADPH regenerating system (NRS) were prepared in phosphate buffer. The final concentrations for each NRS component in the corresponding assays were as follows: (1) CYP2D6 assay = 0.008 mM NADPH, 3.3 mM glucose-6-phosphate, and 0.4 U of glucose-6-phosphate dehydrogenase/mL and (2) CYP3A4 assay = 2.45 mM NADPH, 24.7 mM glucose-6-phosphate, and 1.25 U of glucose-6-phosphate dehydrogenase/mL.
Both enzymatic assays were conducted in a 96-well microtiter plate (Black, Corning Costar) with a final volume of 100 μL per well. Preparation of each plate began with the addition of 74 μL of the 2× E–S solution in the first well and 50 μL to all remaining wells (2–11) in the same row. […] 3-Fold serial dilutions of the test compounds were subsequently conducted by removing 25 μL from the first well and adding it to the second, followed by removing 25 μL from the second well and adding it to the third, and so forth until the 10th row. This procedure provided final concentrations for the test compound ranging from 100 to 0.01 μM across the same row (50 μL total for each well). Well 11 contained no test compound (0% inhibition and 100% activity). Well 12 contained 50 μL of substrate and test compound (100 μM) absent from the enzyme (0% activity, 100% inhibition). Wells 11 and 12 were used as controls for background fluorescence as described below. Each plate was then incubated for 30 min at 37 °C. After incubation was complete, reactions were initiated by the addition of 50 μL of 2X NRS to wells 1–12 (final well volume of 100 μL). Fluorescence measurements were immediately (<1 min) taken using a microplate reader (BioTek Synergy Neo 2). CYP2D6 was monitored at Ex/Em = 410/460 nm, and CYP3A4 was monitored at Ex/Em = 410/538 nm. Next, measurements were conducted in kinetic mode with scans every 5 min for 60 min. Two time points (30 and 60 min) were then chosen in the linear phase of the kinetic graph (reaction progression curve), and the corresponding relative fluorescence units (RFUs) at these time points were used to determine the rate of change in fluorescence according to the following equations [drawing 6] 3 [drawing 7] 4 [drawing 8] 5 where eq 3 defines the difference in RFUs between the 60 and 30 min time points, eq 4 normalizes the background-adjusted ΔRFU to no inhibitor control, and eq 5 converts % inhibition to % activity.
The resulting data were then exported and analyzed using Graph Pad Prism v7. The concentration of each test compound required to inhibit 50% substrate metabolism (IC50) was subsequently calculated from the resulting 10-point concentration–response curves (normalized fluorescence versus log[inhibitor]) using four-parameter logistic nonlinear regression (see Figure S4B for a representative example).

Setting [4] is: pH 7.4, mouse brain tissue binding (free fraction in brain), read-out: % Unbound.
Where [5] appears, read: pH 7.4, mouse brain tissue binding, RED, 4 h, read-out: % Bound Mean ± SD (converted).
Setting [6] is: pH 7.4, mouse brain tissue binding, RED, 4 h, read-out: % Bound R1 (converted).
Where [7] appears, read: pH 7.4, mouse brain tissue binding, RED, 4 h, read-out: % Bound R2 (converted).

T1 sequence (P10635 whole entry): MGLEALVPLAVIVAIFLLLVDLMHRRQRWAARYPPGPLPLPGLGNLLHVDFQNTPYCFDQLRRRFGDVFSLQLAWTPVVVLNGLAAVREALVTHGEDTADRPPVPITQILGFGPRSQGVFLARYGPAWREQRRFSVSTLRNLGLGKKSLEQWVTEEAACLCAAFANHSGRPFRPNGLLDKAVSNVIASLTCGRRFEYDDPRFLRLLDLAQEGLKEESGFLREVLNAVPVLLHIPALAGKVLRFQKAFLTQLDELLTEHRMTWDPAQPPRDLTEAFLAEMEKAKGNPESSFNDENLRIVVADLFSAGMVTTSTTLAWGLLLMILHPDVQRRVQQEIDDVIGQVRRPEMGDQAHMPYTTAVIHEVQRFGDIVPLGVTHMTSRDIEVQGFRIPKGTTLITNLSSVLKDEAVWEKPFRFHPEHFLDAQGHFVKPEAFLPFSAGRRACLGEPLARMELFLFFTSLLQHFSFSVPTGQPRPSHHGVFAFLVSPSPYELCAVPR

Regarding `O=C(O)CCC(=O)N1N=C(c2c(-c3ccc(Cl)cc3)c3ccccc3[nH]c2=O)CC1c1ccc(Cl)cc1` (stereo not drawn) [2a], the fraction unbound at 4 h, 5 µM in data set [1] (setting [4]) was 0.002; in data set [1] (setting [5]) it was 0.002; in data set [1] (setting [6]), 0.001; in data set [1] (setting [7]) it was 0.002; in data set [1] (pH 7.4, mouse brain tissue binding, read-out: fu), 0.002. Moreover, in data set [1] (4 h), the amount remaining at 4 h, 5 µM is 94%. In data set [1] (RED, 4 h), this molecule displayed a recovery at 4 h, 5 μM of 100%. For the same molecule, the solubility (kinetic) at 2 h in data set [2] is around 208 µM. The same molecule returned an IC50 in data set [3] of 18 ± 0.8 µM.
As for `O=C(O)CC(F)(F)C(=O)N1N=C(c2c(-c3ccc(Cl)cc3)c3ccccc3[nH]c2=O)CC1c1ccc(Cl)cc1` (stereo not drawn) [2i], the fraction unbound at 4 h, 5 µM in data set [1] (setting [4]), in data set [1] (setting [5]), in data set [1] (setting [6]) and in data set [1] (setting [7]) was below 0.001 in each case. The fraction remaining at 4 h, 5 µM in data set [1] (4 h) came out at 105%. This molecule also had a recovery at 4 h, 5 μM in data set [1] (RED, 4 h) of 57%. Further, the solubility (kinetic) at 2 h in data set [2] is around 38 µM. Further, in data set [3], the IC50 is above 20 µM.
With `NC(=O)CC(F)(F)C(=O)N1N=C(c2c(-c3ccc(Cl)cc3)c3ccccc3[nH]c2=O)CC1c1ccc(Cl)cc1` (stereo not drawn) [2k], the amount remaining at 4 h, 5 µM in data set [1] (4 h) amounted to 44%. In addition, the recovery at 4 h, 5 μM in data set [1] (RED, 4 h) came to 41%. Besides, in data set [1] (after 4 h), the “metabolized in brain homogenate (% of prodrug)” value is listed as 56%. For the same molecule, the kinetic solubility at 2 h in data set [2] was around 30 µM. The IC50 in data set [3] was above 20 µM.
In the case of `CCOC(=O)CC(F)(F)C(=O)N1N=C(c2c(-c3ccc(Cl)cc3)c3ccccc3[nH]c2=O)CC1c1ccc(Cl)cc1` (stereo not drawn) [2l], in data set [1] (4 h), the share remaining at 4 h, 5 µM amounted to 43%. For the same molecule, in data set [1] (RED, 4 h), the recovery at 4 h, 5 μM was found to be 41%. For the same molecule, in data set [1], the “Average 2i Concentration, Buffer_Mice” value is listed as “BLQ”. The solubility (kinetic) at 2 h in data set [2] was found to be 43 ± 18 µM. The same molecule registered an IC50 in data set [3] above 20 µM.
In the case of `CC(C)OC(=O)CC(F)(F)C(=O)N1N=C(c2c(-c3ccc(Cl)cc3)c3ccccc3[nH]c2=O)CC1c1ccc(Cl)cc1` (stereo not drawn) [2m], the amount remaining at 4 h, 5 µM in data set [1] (4 h) was 56%. In data set [1] (RED, 4 h), this molecule gave a recovery at 4 h, 5 μM of 51%. Also, the “Average 2i Concentration, Buffer_Mice” value in data set [1] is given as “BLQ”. The kinetic solubility at 2 h in data set [2] was found to be 43 ± 10 µM. In data set [3], the 50% inhibitory concentration (IC50) was above 20 µM.
As to `O=C(CC(F)(F)C(=O)N1N=C(c2c(-c3ccc(Cl)cc3)c3ccccc3[nH]c2=O)CC1c1ccc(Cl)cc1)OCC1CC1` (stereo not drawn) [2n], in data set [1] (4 h), the amount remaining at 4 h, 5 µM worked out at 25%. This molecule registered a recovery at 4 h, 5 μM in data set [1] (RED, 4 h) of 29%. Also, in data set [1], the “Average 2i Concentration, Brain_St_0Hr_Mice” value is “BLQ” and the “Average 2i Concentration, Buffer_Mice” value is “BLQ”. For the same molecule, the kinetic solubility at 2 h in data set [2] came out at 27 ± 9 µM. Further, in data set [3], the IC50 is above 20 µM.
Consider `CC(C)(C)COC(=O)CC(F)(F)C(=O)N1N=C(c2c(-c3ccc(Cl)cc3)c3ccccc3[nH]c2=O)CC1c1ccc(Cl)cc1` (stereo not drawn) [2o], for which, in data set [1] (4 h), the amount remaining at 4 h, 5 µM stood at 53%. In addition, in data set [1] (RED, 4 h), the recovery at 4 h, 5 μM was determined as 44%. In data set [1], the “Average 2i Concentration, Brain_St_0Hr_Mice” value is given as “BLQ” and the “Average 2i Concentration, Buffer_Mice” value was “BLQ”. Moreover, in data set [2], the kinetic solubility at 2 h was 52 ± 6.3 µM. In data set [3], this molecule showed an IC50 above 20 µM.
With `O=C(CC(F)(F)C(=O)N1N=C(c2c(-c3ccc(Cl)cc3)c3ccccc3[nH]c2=O)CC1c1ccc(Cl)cc1)OCc1ccccc1` (stereo not drawn) [2p], the amount remaining at 4 h, 5 µM in data set [1] (4 h) worked out at 31%. In data set [1] (RED, 4 h), the recovery at 4 h, 5 μM is 33%. For the same molecule, the “Average 2i Concentration, Buffer_Mice” value in data set [1] is reported as “BLQ”. In data set [2], the solubility (kinetic) at 2 h was 40 ± 12 µM. In addition, in data set [3], the IC50 was above 20 µM.
Turning to `CNC(=O)CC(F)(F)C(=O)N1N=C(c2c(-c3ccc(Cl)cc3)c3ccccc3[nH]c2=O)CC1c1ccc(Cl)cc1` (stereo not drawn) [2q], in data set [1] (4 h), the share remaining at 4 h, 5 µM was determined as 33% and the “Average 2i Concentration, Brain_St_4Hr_Mice” value is “BLQ”. The molecule further displayed a recovery at 4 h, 5 μM in data set [1] (RED, 4 h) of 30%. In data set [1], the “Average 2i Concentration, Brain_Mice” value was “BLQ”; the “Average 2i Concentration, Brain_St_0Hr_Mice” value is on record as “BLQ”; the “Average 2i Concentration, Buffer_Mice” value is “BLQ”. The kinetic solubility at 2 h in data set [2] turned out to be 52 ± 13 µM. Besides, the IC50 in data set [3] is above 20 µM.
For the molecule `CN(C)C(=O)CC(F)(F)C(=O)N1N=C(c2c(-c3ccc(Cl)cc3)c3ccccc3[nH]c2=O)CC1c1ccc(Cl)cc1` (stereo not drawn) [2r], the fraction unbound at 4 h, 5 µM in data set [1] (setting [4]) was below 0.001. Moreover, in data set [1] (setting [5]), the fraction unbound at 4 h, 5 µM was below 0.001. The fraction unbound at 4 h, 5 µM in data set [1] (setting [6]) was below 0.001. The fraction unbound at 4 h, 5 µM in data set [1] (setting [7]) is below 0.001. Moreover, in data set [1] (4 h), the share remaining at 4 h, 5 µM was 93% and the “Average 2i Concentration, Brain_St_4Hr_Mice” value is given as “BLQ”. Further, the recovery at 4 h, 5 μM in data set [1] (RED, 4 h) was found to be 90%. In data set [1], the “Average 2i Concentration, Brain_Mice” value was “BLQ”; the “Average 2i Concentration, Brain_St_0Hr_Mice” value is “BLQ”; the “Average 2i Concentration, Buffer_Mice” value is recorded as “BLQ”. Also, in data set [2], the solubility (kinetic) at 2 h was found to be 43 ± 5.1 µM. Moreover, in data set [3], the IC50 is above 20 µM.

One may read the solubility (kinetic) as solubility judged after dilution from a stock solution rather than from solid. Broadly, the IC50 is the concentration that inhibits the measured activity by half.
